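1) Cells in 96-well plates. 2) Compound, 48 h, 5 concentrations. 3) Linear interpolation between surrounding doses. 4) Unreached endpoint = highest concentration. GI50: concentration for 50% inhibition of growth.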 Calls of active or inactive are those of the source. Cut-off read from the data, not from the text of the source: active = GI50 up to about 1.1 µM and inactive = higher.
Experiments:
Test in all cases: NCI-60 cell line screen, 48 h
CCRF-CEM = test system: CCRF-CEM
NCI/ADR-RES = test system: NCI/ADR-RES
SF-295 = test system: SF-295
SF-268 = test system: SF-268
NCI-H23 = test system: NCI-H23
OVCAR-3 = test system: OVCAR-3
OVCAR-5 = test system: OVCAR-5
SK-MEL-5 = test system: SK-MEL-5
U-251 = test system: U-251
MDA-N = test system: MDA-N
MCF7 = test system: MCF7
SNB-75 = test system: SNB-75
DU-145 = test system: DU-145
UACC-62 = test system: UACC-62
IGROV-1 = test system: IGROV-1
BT-549 = test system: BT-549
UACC-257 = test system: UACC-257
HCT-15 = test system: HCT-15
EKVX = test system: EKVX
KM12 = test system: KM12

| SMILES | GI50 (CCRF-CEM) | GI50 (NCI/ADR-RES) | GI50 (SF-295) | GI50 (SF-268) | GI50 (NCI-H23) | GI50 (OVCAR-3) | GI50 (OVCAR-5) | GI50 (SK-MEL-5) | GI50 (U-251) | GI50 (MDA-N) | GI50 (MCF7) | GI50 (SNB-75) | GI50 (DU-145) | GI50 (UACC-62) | GI50 (IGROV-1) | GI50 (BT-549) | GI50 (UACC-257) | GI50 (HCT-15) [µM] | GI50 (EKVX) | GI50 (KM12) |
| --- | --- | --- | --- | --- | --- | --- | --- | --- | --- | --- | --- | --- | --- | --- | --- | --- | --- | --- | --- | --- |
| COc1ccc(/C=C2\CCc3cc(OC)c(OC)cc3C2=O)cc1 | > 10 µM (inactive) | > 10 µM (inactive) | > 10 µM (inactive) | > 10 µM (inactive) | > 10 µM (inactive) | > 10 µM (inactive) | > 10 µM (inactive) | > 10 µM (inactive) | > 10 µM (inactive) | > 10 µM (inactive) | > 10 µM (inactive) | 5.12 µM (inactive) | > 10 µM (inactive) | > 10 µM (inactive) | > 10 µM (inactive) | > 10 µM (inactive) | > 10 µM (inactive) | > 10 | > 10 µM (inactive) | > 10 µM (inactive) |
| N=C(N)NCC[C@H](NC(=O)OCCCCCn1ccc(=O)[nH]c1=O)C(=O)O | > 100 µM (inactive) | > 100 µM (inactive) | > 100 µM (inactive) | > 100 µM (inactive) | > 100 µM (inactive) | > 100 µM (inactive) | > 100 µM (inactive) | > 100 µM (inactive) | > 100 µM (inactive) | > 100 µM (inactive) | > 100 µM (inactive) | 41.4 µM (inactive) | > 100 µM (inactive) | > 100 µM (inactive) | – | > 100 µM (inactive) | > 100 µM (inactive) | > 100 | > 100 µM (inactive) | > 100 µM (inactive) |
| COc1ccc2oc3c(C)cc4c(OC)nnc(OC)c4c3c2c1 | 5.21 µM (inactive) | 18.4 µM (inactive) | 8.51 µM (inactive) | 6.53 µM (inactive) | 17.9 µM (inactive) | > 100 µM (inactive) | > 100 µM (inactive) | 6.15 µM (inactive) | 1.98 µM (inactive) | 18 µM (inactive) | 16.3 µM (inactive) | 4.88 µM (inactive) | > 100 µM (inactive) | 9.31 µM (inactive) | – | > 100 µM (inactive) | 42 µM (inactive) | 7.83 | 17.9 µM (inactive) | 27.4 µM (inactive) |
| Nc1c2cc3ccc2nc2ccc(cc12)OCCOCCOCCOCCOCCOCCO3 | > 10 µM (inactive) | > 10 µM (inactive) | > 10 µM (inactive) | > 10 µM (inactive) | > 10 µM (inactive) | > 10 µM (inactive) | > 10 µM (inactive) | > 10 µM (inactive) | > 10 µM (inactive) | > 10 µM (inactive) | > 10 µM (inactive) | > 10 µM (inactive) | > 10 µM (inactive) | > 10 µM (inactive) | > 10 µM (inactive) | > 10 µM (inactive) | > 10 µM (inactive) | > 10 | > 10 µM (inactive) | > 10 µM (inactive) |
| CCOP(=O)(OCC)C(c1ccccc1)N(C(=O)NC(F)(F)F)c1ccc(C)cc1 (configuration not stated) | > 100 µM (inactive) | > 100 µM (inactive) | > 100 µM (inactive) | > 100 µM (inactive) | > 100 µM (inactive) | > 100 µM (inactive) | > 100 µM (inactive) | > 100 µM (inactive) | > 100 µM (inactive) | > 100 µM (inactive) | > 100 µM (inactive) | > 100 µM (inactive) | > 100 µM (inactive) | > 100 µM (inactive) | > 100 µM (inactive) | > 100 µM (inactive) | > 100 µM (inactive) | > 100 | > 100 µM (inactive) | > 100 µM (inactive) |
| Cc1ccc(S(=O)(=O)SC(C)(C)C)cc1 | 12.6 µM (inactive) | 32.6 µM (inactive) | > 100 µM (inactive) | 45.5 µM (inactive) | 11.2 µM (inactive) | 20.9 µM (inactive) | > 48.4 µM (inactive) | 46.1 µM (inactive) | > 100 µM (inactive) | > 10 µM (inactive) | 19.2 µM (inactive) | > 63.5 µM (inactive) | > 100 µM (inactive) | 19.9 µM (inactive) | 18.9 µM (inactive) | 22.4 µM (inactive) | 21.6 µM (inactive) | 23.4 | > 45.8 µM (inactive) | 45.2 µM (inactive) |
| CC(O)CCNC(=O)Nc1c(C(F)(F)F)cc(-c2ccccc2)[nH]c1=O (configuration not stated) | > 100 µM (inactive) | > 100 µM (inactive) | > 100 µM (inactive) | > 100 µM (inactive) | > 100 µM (inactive) | > 100 µM (inactive) | > 100 µM (inactive) | > 100 µM (inactive) | > 100 µM (inactive) | > 100 µM (inactive) | > 100 µM (inactive) | > 100 µM (inactive) | > 100 µM (inactive) | > 100 µM (inactive) | > 100 µM (inactive) | > 100 µM (inactive) | > 100 µM (inactive) | > 100 | > 100 µM (inactive) | > 100 µM (inactive) |
| O=c1cc(/N=N\c2ccc(Cl)cc2)[nH]c(=O)[nH]1 | 1.44 µM (inactive) | 7.4 µM (inactive) | 13.9 µM (inactive) | 4.61 µM (inactive) | 7.67 µM (inactive) | 4.12 µM (inactive) | 13.6 µM (inactive) | 10.6 µM (inactive) | 4.81 µM (inactive) | 4.71 µM (inactive) | 3.97 µM (inactive) | 14.5 µM (inactive) | 9.23 µM (inactive) | 3.48 µM (inactive) | 3.44 µM (inactive) | 3.88 µM (inactive) | 4.83 µM (inactive) | 1.96 | 4.09 µM (inactive) | 5.27 µM (inactive) |
| COc1cc(CCNC2=CC(=O)c3nc[nH]c3C2=O)ccc1O | 33.3 µM (inactive) | > 100 µM (inactive) | 28.4 µM (inactive) | 38.9 µM (inactive) | 20.7 µM (inactive) | 3.16 µM (inactive) | 18.6 µM (inactive) | 14.4 µM (inactive) | 23.7 µM (inactive) | 18 µM (inactive) | 17.1 µM (inactive) | 19 µM (inactive) | 20 µM (inactive) | 19.2 µM (inactive) | 23.2 µM (inactive) | 24.7 µM (inactive) | 19.8 µM (inactive) | 33 | 21.2 µM (inactive) | 27.3 µM (inactive) |
| Brc1ccc(CCNCCN2CCCCC2)cc1 | 14.2 µM (inactive) | 21.1 µM (inactive) | 18.3 µM (inactive) | 15.5 µM (inactive) | 16.4 µM (inactive) | 15.4 µM (inactive) | 17 µM (inactive) | 8.07 µM (inactive) | 18.4 µM (inactive) | 10.7 µM (inactive) | 15.7 µM (inactive) | 12.8 µM (inactive) | 35.6 µM (inactive) | – | 17.1 µM (inactive) | 15.7 µM (inactive) | 14.8 µM (inactive) | 18.1 | 33.1 µM (inactive) | 16.6 µM (inactive) |
| C=C(C)[C@@H]1CC[C@]2(CO)CC[C@]3(C)[C@H](CC[C@@H]4[C@@]5(C)CC[C@H](O)C(C)(C)[C@@H]5CC[C@]43C)[C@@H]12 [BETULIN] | 34.5 µM (inactive) | 30.4 µM (inactive) | 14 µM (inactive) | 25.1 µM (inactive) | 94.8 µM (inactive) | 28.2 µM (inactive) | 55.7 µM (inactive) | 19.7 µM (inactive) | 11.8 µM (inactive) | 45 µM (inactive) | 19.9 µM (inactive) | 12.7 µM (inactive) | 84.3 µM (inactive) | – | 34.8 µM (inactive) | 17.6 µM (inactive) | 23.3 µM (inactive) | 42.6 | 25.6 µM (inactive) | 9.71 µM (inactive) |
| O=CC(O)C(O)C(O)C(O)COC(=O)NCCCCC(=O)C(F)(F)C(F)(F)C(F)(F)C(F)(F)C(F)(F)C(F)(F)C(F)(F)F (configuration not stated) | 18.4 µM (inactive) | > 100 µM (inactive) | 23.2 µM (inactive) | 24.8 µM (inactive) | 32.9 µM (inactive) | 47 µM (inactive) | 17.2 µM (inactive) | 23.7 µM (inactive) | > 10 µM (inactive) | 27.8 µM (inactive) | 19.1 µM (inactive) | 22.9 µM (inactive) | 47.6 µM (inactive) | 15.9 µM (inactive) | 29.7 µM (inactive) | 16.1 µM (inactive) | > 10 µM (inactive) | 50.2 | – | 19.1 µM (inactive) |
| CCCCCCCCCCCCCCCCCCOc1ccc(/C=C/C2=[N+](CCCl)CCO2)cc1 | > 100 µM (inactive) | > 100 µM (inactive) | > 100 µM (inactive) | – | – | > 100 µM (inactive) | 95.7 µM (inactive) | > 100 µM (inactive) | 50.4 µM (inactive) | > 100 µM (inactive) | > 100 µM (inactive) | 3.54 µM (inactive) | > 100 µM (inactive) | > 100 µM (inactive) | 67.6 µM (inactive) | > 100 µM (inactive) | > 100 µM (inactive) | > 100 | > 100 µM (inactive) | > 100 µM (inactive) |
| COc1cc(C2c3c(ccc4ccccc34)C(=O)C3CCC(=O)N32)cc(OC)c1OC (configuration not stated) | > 50 µM (inactive) | > 50 µM (inactive) | > 50 µM (inactive) | > 50 µM (inactive) | > 50 µM (inactive) | > 50 µM (inactive) | > 50 µM (inactive) | – | > 50 µM (inactive) | > 50 µM (inactive) | > 50 µM (inactive) | > 50 µM (inactive) | > 50 µM (inactive) | > 50 µM (inactive) | > 50 µM (inactive) | > 50 µM (inactive) | > 50 µM (inactive) | > 50 | > 50 µM (inactive) | > 50 µM (inactive) |

Reference: ChEMBL document CHEMBL1201862, “PubChem BioAssay data set” (2004)
